# Tests used:
# [1] = tested on: bicistronic HCV replicon (replicon RNA, GenBank Accession No. AJ242654); experiment: HCV Replicon Assay; type: cell-based; conditions: Hepatitis C virus, 72 h, read-out: Replicon IC50
Compound,IC50 [1],melting point
"C[C@@H](C1CC1)n1c(-c2ccc(NS(=O)(=O)C(C)(C)C)nc2)c(C(N)=O)c2cc(F)c(OC(F)F)cc21 [compound 1081, 2-{6-[(tert-butylsulfonyl)amino]pyridin-3-yl}-1-[(1S)-1-cyclopropylethyl]-6-(difluoromethoxy)-5-fluoro-1H-indole-3-carboxamide]",< 500 nM,239 to 241 °C
"Cc1cc2c(cc1F)c(C(N)=O)c(-c1ccc(S(=O)(=O)N[C@@H](C)C(F)(F)F)cn1)n2-c1cccnc1 [compound 913, 5-fluoro-6-methyl-1-(pyridin-3-yl)-2-(5-{[(2S)-1,1,1-trifluoropropan-2-yl]sulfamoyl}pyridin-2-yl)-1H-indole-3-carboxamide]",< 500 nM,223 to 227 °C
"CCc1cc(F)c2c(C(N)=O)c(-c3ccc(NS(=O)(=O)C(C)(C)C)nc3)n(C3CCC3)c2c1 [compound 1118, 2-{6-[(tert-butylsulfonyl)amino]pyridin-3-yl}-1-cyclobutyl-6-ethyl-4-fluoro-1H-indole-3-carboxamide]",< 500 nM,263 to 268 °C
"Cc1cc2c(cc1O)c(C(N)=O)c(-c1ccc(S(=O)(=O)N[C@@H](C)C(F)(F)F)cn1)n2C1CCCC1 [compound 841, 1-cyclopentyl-5-hydroxy-6-methyl-2-(5-{[(2S)-1,1,1-trifluoropropan-2-yl]sulfamoyl}pyridin-2-yl)-1H-indole-3-carboxamide]",< 500 nM,272 to 274 °C
"CC(C)n1c(-c2ccc(S(=O)(=O)N[C@@H](C)C(F)(F)F)cn2)c(C(N)=O)c2c(F)cc(OC(F)F)cc21 [compound 839, 6-(difluoromethoxy)-4-fluoro-1-(propan-2-yl)-2-(5-{[(2S)-1,1,1-trifluoropropan-2-yl]sulfamoyl}pyridin-2-yl)-1H-indole-3-carboxamide]",< 500 nM,197 to 198 °C
"CCc1cc2c(cc1F)c(C#N)c(-c1ncc(S(=O)(=O)N[C@@H](C)C(F)(F)F)cc1C)n2-c1ccccn1 [compound 870, 6-[3-cyano-6-ethyl-5-fluoro-1-(pyridin-2-yl)-1H-indol-2-yl]-5-methyl-N-[(2S)-1,1,1-trifluoropropan-2-yl]pyridine-3-sulfonamide]",< 500 nM,195 to 198 °C
"COc1ccc2c(c1)c(C#N)c(-c1ncc(S(=O)(=O)N[C@@H](C)C3CC3)cn1)n2C1CCC1 [compound 570, 2-(3-cyano-1-cyclobutyl-5-methoxy-1H-indol-2-yl)-N-[(1S)-1-cyclopropylethyl]pyrimidine-5-sulfonamide]",500 to 2000 nM,182 to 183 °C
"CCc1cc2c(cc1F)c(C#N)c(-c1cc(C)c(S(=O)(=O)N[C@H](C)C(F)(F)F)cn1)n2-c1ncccn1 [compound 890, 6-[3-cyano-6-ethyl-5-fluoro-1-(pyrimidin-2-yl)-1H-indol-2-yl]-4-methyl-N-[(2R)-1,1,1-trifluoropropan-2-yl]pyridine-3-sulfonamide]",< 500 nM,231 to 236 °C
"Cc1cc2c(cc1Cl)c(C#N)c(-c1ccc(S(=O)(=O)NC(CF)CF)cn1)n2C1CCC1 [compound 444, 6-(5-chloro-3-cyano-1-cyclobutyl-6-methyl-1H-indol-2-yl)-N-(1,3-difluoropropan-2-yl)pyridine-3-sulfonamide]",< 500 nM,189 to 193 °C
"Cc1cc2c(cc1F)c(C#N)c(-c1ccc(S(=O)(=O)N[C@@H](C)C(F)(F)F)cn1)n2C1CCCC1 [compound 408, 6-(3-cyano-1-cyclopentyl-5-fluoro-6-methyl-1H-indol-2-yl)-N-[(2S)-1,1,1-trifluoropropan-2-yl]pyridine-3-sulfonamide]",< 500 nM,168 to 171 °C
"COc1cc2c(cc1F)c(C#N)c(-c1ncc(S(=O)(=O)NC(CF)CF)cn1)n2C1CCC1 [compound 150, 2-(3-cyano-1-cyclobutyl-5-fluoro-6-methoxy-1H-indol-2-yl)-N-(1,3-difluoropropan-2-yl)pyrimidine-5-sulfonamide]",< 500 nM,245 to 247 °C
"N#Cc1c(-c2ccc(S(=O)(=O)NC(CF)CF)cn2)n(CC2CC2)c2cc(OC(F)F)ccc12 [compound 41, 6-[3-cyano-1-(cyclopropylmethyl)-6-(difluoromethoxy)-1H-indol-2-yl]-N-(1,3-difluoropropan-2-yl)pyridine-3-sulfonamide]",< 500 nM,150 to 151 °C
"C[C@H](NS(=O)(=O)c1cnc(-c2c(C#N)c3cc(F)ccc3n2C2CCCCC2)nc1)C1CC1 [compound 528, 2-(3-cyano-1-cyclohexyl-5-fluoro-1H-indol-2-yl)-N-[(1S)-1-cyclopropylethyl]pyrimidine-5-sulfonamide]",< 500 nM,219 to 221 °C
"CC(C)n1c(-c2ccc(S(=O)(=O)NC(CF)CF)cn2)c(C#N)c2ccc(OC(F)F)cc21 [compound 36, 6-[3-cyano-6-(difluoromethoxy)-1-(propan-2-yl)-1H-indol-2-yl]-N-(1,3-difluoropropan-2-yl)pyridine-3-sulfonamide]",< 500 nM,142 to 145 °C
"C[C@H](NS(=O)(=O)c1ccc(-c2c(C#N)c3ccc(F)cc3n2C2CCC2)nc1)C1CC1 [compound 144, 6-(3-cyano-1-cyclobutyl-6-fluoro-1H-indol-2-yl)-N-[(1S)-1-cyclopropylethyl]pyridine-3-sulfonamide]",< 500 nM,136 to 138 °C
"Cc1cc2c(cc1F)c(C#N)c(-c1ccc(S(=O)(=O)N[C@@H](C)C(F)(F)F)cn1)n2-c1cccnn1 [compound 892, 6-[3-cyano-5-fluoro-6-methyl-1-(pyridazin-3-yl)-1H-indol-2-yl]-N-[(2S)-1,1,1-trifluoropropan-2-yl]pyridine-3-sulfonamide]",< 500 nM,245 to 250 °C
"C[C@H](NS(=O)(=O)c1ccc(-c2c(C#N)c3cc(F)c(OC(F)F)cc3n2CC2CC2)nc1)C(F)(F)F [compound 787, 6-[3-cyano-1-(cyclopropylmethyl)-6-(difluoromethoxy)-5-fluoro-1H-indol-2-yl]-N-[(2S)-1,1,1-trifluoropropan-2-yl]pyridine-3-sulfonamide]",< 500 nM,149 to 153 °C
"Cc1cc2c(cc1F)c(C#N)c(-c1ccc(S(=O)(=O)N[C@@H](C)C(F)(F)F)cn1)n2C1CCC1 [compound 340, 6-(3-cyano-1-cyclobutyl-5-fluoro-6-methyl-1H-indol-2-yl)-N-[(2S)-1,1,1-trifluoropropan-2-yl]pyridine-3-sulfonamide]",< 500 nM,218 to 219 °C
"N#Cc1c(-c2ncc(S(=O)(=O)NC(CF)CF)cn2)n(-c2ccc(F)cc2)c2cc(OC(F)F)ccc12 [compound 477, 2-[3-cyano-6-(difluoromethoxy)-1-(4-fluorophenyl)-1H-indol-2-yl]-N-(1,3-difluoropropan-2-yl)pyrimidine-5-sulfonamide]",< 500 nM,213 to 216 °C
"COc1ccc2c(C#N)c(-c3ccc(S(=O)(=O)N[C@@H](C)C(F)(F)F)cn3)n(C3CCCCC3)c2c1 [compound 519, 6-(3-cyano-1-cyclohexyl-6-methoxy-1H-indol-2-yl)-N-[(2S)-1,1,1-trifluoropropan-2-yl]pyridine-3-sulfonamide]",< 500 nM,197 to 204 °C
"CC(C)(C)NS(=O)(=O)c1ccc(-c2c(C#N)c3cc(Cl)ccc3n2C2CCC2)nc1 [compound 15, N-tert-butyl-6-(5-chloro-3-cyano-1-cyclobutyl-1H-indol-2-yl)pyridine-3-sulfonamide]",500 to 2000 nM,195 to 197 °C
"C[C@H](NS(=O)(=O)c1cnc(-c2c(C#N)c3cc(F)ccc3n2C2CCC2)nc1)C1CC1 [compound 544, 2-(3-cyano-1-cyclobutyl-5-fluoro-1H-indol-2-yl)-N-[(1S)-1-cyclopropylethyl]pyrimidine-5-sulfonamide]",< 500 nM,178 to 181 °C
"Cc1ccc2c(c1)c(C#N)c(-c1ncc(S(=O)(=O)NC(CF)CF)cn1)n2C1CCCCC1 [compound 198, 2-(3-cyano-1-cyclohexyl-5-methyl-1H-indol-2-yl)-N-(1,3-difluoropropan-2-yl)pyrimidine-5-sulfonamide]",500 to 2000 nM,211 to 215 °C
"C[C@H](NS(=O)(=O)c1ccc(-c2c(C#N)c3ccc(Cl)cc3n2C2CCC2)nc1)C(F)(F)F [compound 375, 6-(6-chloro-3-cyano-1-cyclobutyl-1H-indol-2-yl)-N-[(2S)-1,1,1-trifluoropropan-2-yl]pyridine-3-sulfonamide]",< 500 nM,198 to 204 °C
"CC(C)(C)NS(=O)(=O)c1ccc(-c2c(C(N)=O)c3cc(F)c(OC(F)F)cc3n2C2CCC2)nc1 [compound 723, 2-[5-(tert-butylsulfamoyl)pyridin-2-yl]-1-cyclobutyl-6-(difluoromethoxy)-5-fluoro-1H-indole-3-carboxamide]",< 500 nM,158 to 160 °C
"Cc1c(F)cc2c(c1F)c(C#N)c(-c1ccc(S(=O)(=O)NC(CF)CF)cn1)n2C1CCCC1 [compound 558, 6-(3-cyano-1-cyclopentyl-4,6-difluoro-5-methyl-1H-indol-2-yl)-N-(1,3-difluoropropan-2-yl)pyridine-3-sulfonamide]",< 500 nM,214 to 219 °C
"CCc1cc2c(cc1F)c(C(N)=O)c(-c1ccc(S(=O)(=O)N[C@@H](C)C(F)(F)F)cn1)n2-c1cccc(Cl)c1 [compound 1027, 1-(3-chlorophenyl)-6-ethyl-5-fluoro-2-(5-{[(2S)-1,1,1-trifluoropropan-2-yl]sulfamoyl}pyridin-2-yl)-1H-indole-3-carboxamide]",< 500 nM,200 to 205 °C
"CCc1cc2c(cc1F)c(C#N)c(-c1ccc(S(=O)(=O)N[C@@H](C)C(F)(F)F)cn1)n2-c1ccc(F)cc1 [compound 1002, 6-[3-cyano-6-ethyl-5-fluoro-1-(4-fluorophenyl)-1H-indol-2-yl]-N-[(2S)-1,1,1-trifluoropropan-2-yl]pyridine-3-sulfonamide]",< 500 nM,236 to 243 °C

# From patent US8735414B2 (priority 2009, dated 2014)
